Entries after “also recorded” stand apart in the source; their conditions may differ.
Key:
THLE-5B cells [1] = test: Anchorage-independent transformation (over-agar) assay in THLE-5B cells; type: cell-based, human; details: 10 ng/ml EGF, inhibitor 0.01 μM to 1.0 μM, colonies counted after 14 days
Method: Cells and Culture Conditions. The normal human liver epithelial cell line, THLE-5B, was kindly provided by Curtis Harris (NCI, National Institutes of Health, Bethesda, Md.). THLE-5B cells were propagated in DMEM/F-12 (1:1; Invitrogen, Carlsbad, Calif.) with 10% fetal bovine serum (MediaTech CellGro, Herndon, Va.), that was supplemented with 100 units/ml penicillin, […] streptomycin (both from Invitrogen), 10 μg/ml insulin, 10 μg/ml transferrin and 10 ng/ml selenium (ITS; Lonza, Walkersville, Md.). Primary human hepatocytes were isolated as described before and cultured in HMM media (Lonza). Cells were maintained at 37° C. in a humidified incubator with 5% CO2 in air.
Chemicals. Stock solutions of AG1478 (Invitrogen), erlotinib (Tarceva™; Genentech, South San Francisco, Calif.) and gefitinib (Iressa™; AstraZeneca, Wilmington, Del.) were prepared in DMSO and stored at −20° C. EGF (Sigma, St. Louis, Mo.) stock solution was prepared in 10 mM acetic acid and diluted in PBS.
Anchorage-Independent Transformation Assay. Because cells suspended in soft agar cannot be easily recovered, the inventors used the previously described over-agar assay which allows for the analysis of molecular events associated with tumor promoter-induced cell transformation under anchorage-independent conditions. Briefly, 1×10^4 THLE-5B cells or isolated human hepatocytes were plated onto 0.5% BME agar containing the indicated concentrations of EGF and inhibitors. The plates were cultured for 14 days, after which colonies of transformed cells were counted using a microscope. The results represent one experiment and are presented as the mean±standard deviation of colony counts made by three separate investigators. The experiments were repeated twice to ensure qualitatively similar results.

THLE-5B cells [2] = test: Cell growth (MTT) assay in THLE-5B cells; type: cell-based, human; details: inhibitor 0.01-1 μM; 72 h
Method: Cell Growth Assay. Briefly, THLE-5B cells were plated in triplicate at a density of 4×10^4 cells/ml in a 24-well plate. After 24 h, cells were washed once with PBS and medium containing inhibitors at the indicated concentrations or vehicle control was added. After 72 h, the effects of each inhibitor on growth of the cells was measured by colorimetric 3-(4,5-dimethylthiazol-2-yl)-2,5-diphenyltetrazolium bromide (MTT; Sigma) assay. The absorbance at 562 nm was measured using a spectrophotometric plate reader (Emax; Molecular Devices) and the experiment was repeated twice to ensure qualitatively similar results for each inhibitor.

HCC nodules = details: rat, DEN-induced cirrhosis; treatment during weeks 12-18; cited from earlier work

Structure (SMILES) | EGF mediated anchorage-independent transformation of THLE-5B cells (THLE-5B cells [1]) | EGF mediated anchorage-independent transformation of THLE-5B cells (THLE-5B cells [1]; listed as Gefitnib) | cytotoxicity to THLE-5B cells as determined by MTT (THLE-5B cells [2]) | formation of HCC nodules (HCC nodules)
COc1cc2ncnc(Nc3ccc(F)c(Cl)c3)c2cc1OCCCN1CCOCC1 [Gefitinib] | inhibited | prevents EGF mediated anchorage-independent transformation | not cytotoxic | significantly reduced the formation of HCC nodules; also recorded: significantly reduced the formation of hepatocellular carcinoma nodules
COc1cc2ncnc(Nc3cccc(Cl)c3)c2cc1OC [AG1478, 4-(3-Chloroanillino)-6,7-dimethoxyquinazoline] | prevents EGF mediated anchorage-independent transformation; also recorded: inhibited |  | not cytotoxic | 
C#Cc1cccc(Nc2ncnc3cc(OCCOC)c(OCCOC)cc23)c1 [Erlotinib] | prevents EGF mediated anchorage-independent transformation; also recorded: inhibited |  | not cytotoxic | 
